# Publication PMC9725750, “The clinical pharmacology of tafenoquine in the radical cure of Plasmodium vivax malaria: An individual patient data meta-analysis” (eLife, 2022)
# Columns and labels:
# [1] = design: method as in Shanks et al., 2001; settings: ref Shanks et al., 2001, cited from earlier work
# [2] = system: Plasmodium vivax; assay: Radical cure efficacy: any P. vivax recurrence within 4 months in patients, pooled DETECTIVE part 1/2 and GATHER (logistic regression and Emax models); type: in vivo, human; settings: for mean recurrence proportion: empirical weight distribution
# From the text: The primary endpoint for the main efficacy analyses was any P. vivax recurrence within 4 months. We chose the binary endpoint of any recurrence rather than the time to first recurrence because tafenoquine has both asexual stage antimalarial activity ([Fukuda et al., 2017]) and hypnozoiticidal activity. […] The choice of a particular cut-off for follow-up is thus a trade-off between sensitivity and specificity. Longer follow-up will increase the sensitivity of the endpoint (include more relapses) but decrease specificity (include more reinfections).
# For all predictors we fitted Bayesian mixed effects logistic regression models (random intercepts for study and study site), with adjustment for day 0 parasitaemia (log transformed). Logistic regression allows inference of the odds-ratio for recurrence for the predictive variable of interest, assuming a linear relationship between the predictive variable and log-odds for recurrence.
# For the mg/kg dose (the primary predictor of interest), the dose-response relationship was then assessed under a Bayesian Emax model, where the dose-dependent logit probability of recurrence is defined as: Emax(d,x)=α+βx+δd^k/d^k+γ^k,
# The Emax model was also fitted with random intercepts for study and study site.
# To determine the main predictors of recurrence, we fitted a multivariable penalised Bayesian logistic regression model. This included the following variables as predictors: the tafenoquine mg/kg dose; the plasma tafenoquine AUC[0,∞); the plasma tafenoquine Cmax; the day 7 MetHb concentration (%); the terminal elimination half-life t1/2; and the baseline parasite density. The model included random intercept terms for each study and study site. […] To avoid convergence issues resulting from the co-linearity of the predictors, the prior on all non-hierarchical coefficients was set to a Normal(0,0.5). This prior effectively shrinks the regression coefficients towards zero. It can be interpreted as follows: plausible odds-ratios for recurrence for one standard deviation change for each of the fixed effect predictors lie approximately between 0.38 and 2.7).
# In a priori sensitivity analyses, all recurrences up until 6 months were included as both binary and time to event outcomes. The time to first recurrence was defined as a P. vivax episode between day 7 and day 180 with right censoring at the last recorded visit. We also re-ran the same models in patients who received a 300 mg single dose of tafenoquine only (i.e. the current recommended treatment).
# [3] = system: CYP2D6; assay: CYP2D6 activity score (poor vs normal/extensive metabolisers): association with recurrence and half-life; type: in vivo, human
# From the text: CYP2D6 genotyping data were available for patients enrolled in DETECTIVE part 2 and GATHER. We mapped CYP2D6 diplotypes to an activity score using the standard scoring system ([Caudle et al., 2020]) (note that under the updated scoring system the *10 allele has a score of 0.25 instead of 0.5). The activity score cannot be used as a linear predictor (e.g. a score of 1 cannot be interpreted as twice the metabolic activity of a score of 0.5). For this reason, to assess association with recurrence, we dichotomised the activity scores into poor metabolisers (≤0.5) versus normal/extensive metabolisers (>0.5) ([Caudle et al., 2020]).
# [4] = Tolerability and safety: acute vomiting, severe haemolysis, haemoglobin change; type: in vivo, human; settings: for Hb change to day 2/3 / Hb change to day 7±1: mean (sd)
# Method: For tolerability, acute vomiting was defined as vomiting within 1 hr of tafenoquine dosing, and for safety, three definitions of severe haemolysis were assessed:
# • Relative fall in haemoglobin by more than 25% to <7 g/dL • Absolute fall in haemoglobin greater than 5 g/dL • Any haemoglobin fall to <5 g/dL
# Tolerability and safety events were categorised according to tafenoquine treatment and doses (no tafenoquine, <3.75 mg/kg tafenoquine, [3.75,6.25) mg/kg tafenoquine, [6.25,8.75) mg/kg tafenoquine, ≥8.75 mg/kg tafenoquine). The change in haemoglobin concentration from day 0 to the minimum on day 2 or 3, the expected day of nadir ([Commons et al., 2019]), was calculated to assess changes in haemoglobin associated with tafenoquine dose. Mixed effects models were used to explore the association between tafenoquine mg/kg dose, day 7 MetHb concentration, AUC[0,∞) , Cmax, and t1/2 adjusting for age, sex, day 0 parasite density and day 0 haemoglobin, with random effects for study and site.
# [5] = all tafenoquine-treated patients
structure (smiles),measurement,setting,value
COc1cc(C)c2c(Oc3cccc(C(F)(F)F)c3)c(OC)cc(NC(C)CCCN)c2n1 (stereo not shown) [tafenoquine],haemolytic outcome,"[1]; female heterozygous for G6PD deficiency (A- variant), total dose 1200 mg over 3 days",severe haemolytic reaction
same,drop in haemoglobin,"[1]; homozygous G6PD deficient female (A- variant), 1200 mg over 3 days, remained asymptomatic",~3 g/dL
same,reduction of recurrence rates,[2]; 300 mg fixed dose vs no 8-aminoquinoline treatment,around 70%
same,reduction of recurrence rates,[2]; 450 mg fixed dose vs no 8-aminoquinoline treatment,around 85%
same,mean recurrence proportion,"[2]; 450 mg fixed dose, 95% CI 3.2–11.5",6.2%
same,mean estimated recurrence proportion at 4 months,"[2]; Emax model, 3 mg/kg",28.5%
same,mean estimated recurrence proportion at 4 months,"[2]; Emax model, 4 mg/kg",20.8%
same,mean estimated recurrence proportion at 4 months,"[2]; Emax model, 5 mg/kg",14.2%
same,proportion of the maximal obtainable hypnozoiticidal effect,"[2]; Emax model, 300 mg dose in a 60 kg adult (5 mg/kg)",70%
same,reduction in the risk of P. vivax recurrence,"[2]; Emax model, dose 7.5 mg/kg (i.e. 450 mg)",90%
same,proportion of the effect achieved with 15 mg/kg,"[2]; Emax model, dose of approximately 7.5 mg/kg, 15 mg/kg taken as maximum tolerated single dose",90%
same,Recurrence at 4 months,"[2]; TQ <3.75 mg/kg single dose + chloroquine, n=169",57 (33.7) total number (%)
same,Recurrence at 4 months,"[2]; TQ [3.75,6.25) mg/kg single dose + chloroquine, n=368",79 (21.5) total number (%)
same,Recurrence at 4 months,"[2]; TQ [6.25,8.75) mg/kg single dose + chloroquine, n=54",4 (7.4) total number (%)
same,Recurrence at 4 months,"[2]; TQ ≥8.75 mg/kg single dose + chloroquine, n=43, 8.75 mg/kg",No recurrences
same,Recurrence at 4 months,"[2]; TQ ≥8.75 mg/kg single dose + chloroquine, n=43, listed as TQ, 8.75 mg/kg",0 (0) total number (%)
same,number needed to treat to prevent one additional recurrence of malaria,"[2]; adult dose increased from 300 mg to 450 mg, Emax model, 95% CI 7–21",11 patients
same,effect on recurrence rates at 4 months of increasing dosing recommendation from 300mg to 450mg,[2]; body weight distribution as in pre-registration trials,more than halve
same,OR for recurrence per mg/kg increase,"[2]; data from DETECTIVE part 1 only, 95% CI 0.52–0.72",0.62
same,mean recurrence proportion,"[2]; fixed 300 mg dose in an adult, 95% CI 9.6–21.7",15.3%
same,mean probability of recurrence at 4 months,"[2]; logistic model estimate, following 5 mg/kg tafenoquine, 95% CI 0.10–0.23",0.15
same,odds-ratio (OR) for recurrence within 4 months per additional mg/kg of tafenoquine,"[2]; logistic regression, all data n=1073, 95% CI 0.65–0.76",0.70
same,odds ratio for recurrence per absolute percentage point increase in the day 7 MetHb concentration,"[2]; logit-Emax model adjusted for mg/kg dose, 95% CI 0.65 to 0.99",0.81
same,OR for recurrence within 4 months per mg/kg tafenoquine,"[2]; restricted to patients who received 300 mg dose, n=469, 95% CI 0.51–0.85",0.66
same,odds ratio for recurrence at 4 months for each day increase in t1/2,"[2]; weight-adjusted t1/2, adjusted for mg/kg dose, 95% CI 1.06–1.25",1.15
same,"OR for recurrence at 4 months, poor versus normal/extensive metabolisers","[3]; CYP2D6 activity score ≤0.5 vs >0.5, 95% CI 0.4 to 2.2",0.9
same,change in tafenoquine elimination half-life in poor versus normal/extensive metabolisers,"[3]; activity score ≤0.5, n=35 vs n=356, 95% CI –1.22 to 0.94",–0.15 days
same,additional mean haemoglobin reduction at day 2 or 3,[4]; 300 mg dose in a 60 kg adult,around 0.1 g/dL
same,"additional mean reduction in Hb at day 2 or 3, relative",[4]; 300 mg dose in a 60 kg adult,< 1%
same,patients who vomited within 1 hour of oral administration,[4]; 15/651 patients,2.3%
same,haemoglobin increase per one day increase in terminal elimination half-life,[4]; 95% CI 0.01 to 0.04,0.02 g/dL
same,OR for vomiting per mg/kg increase,[4]; 95% CI 0.88–1.32,1.08
same,change in haemoglobin concentration per one percent increase in day 7 MetHb,"[4]; Hb on day 2 or 3, 95% CI –0.12 to –0.03",–0.08 g/dL
same,Absolute Hb fall >5 g/dL,"[4]; TQ 3.75-<6.25mg/kg, n=378",1 (0.3%) n (%)
same,Hb fall >25% to<7 g/dL,"[4]; TQ 3.75-<6.25mg/kg, n=378",0 (0%) n (%)
same,Hb fall to <5 g/dL,"[4]; TQ 3.75-<6.25mg/kg, n=378",0 (0%) n (%)
same,Absolute Hb fall >5 g/dL,"[4]; TQ 6.25-<8.75mg/kg, n=56",0 (0%) n (%)
same,Hb fall >25% to<7 g/dL,"[4]; TQ 6.25-<8.75mg/kg, n=56",0 (0%) n (%)
same,Hb fall to <5 g/dL,"[4]; TQ 6.25-<8.75mg/kg, n=56",0 (0%) n (%)
same,Absolute Hb fall >5 g/dL,"[4]; TQ <3.75mg/kg, n=171",0 (0%) n (%)
same,Hb fall >25% to<7 g/dL,"[4]; TQ <3.75mg/kg, n=171",0 (0%) n (%)
same,Hb fall to <5 g/dL,"[4]; TQ <3.75mg/kg, n=171",0 (0%) n (%)
same,Absolute Hb fall >5 g/dL,"[4]; TQ > 8.75mg/kg, n=44",0 (0%) n (%)
same,Hb fall >25% to<7 g/dL,"[4]; TQ > 8.75mg/kg, n=44",0 (0%) n (%)
same,Hb fall to <5 g/dL,"[4]; TQ > 8.75mg/kg, n=44",0 (0%) n (%)
same,patients with a fall in Hb to less than 5 g/dL,[4]; [5],no patients
same,patients with greater than 5 g/dL fall in Hb,[4]; [5],One patient
same,patients with greater than 25% fall in Hb to <7 g/dL,[4]; [5],no patients
same,mean haemoglobin reduction at day 2 or 3,[4]; dose increased to 450 mg,0.15 g/dL
same,Hb change to day 2/3,"[4]; TQ 3.75-<6.25mg/kg, n=378",–0.7 (0.9)
same,Hb change to day 7±1,"[4]; TQ 3.75-<6.25mg/kg, n=378",–0.4 (1.1)
same,Hb change to day 2/3,"[4]; TQ 6.25-<8.75mg/kg, n=56",–0.8 (0.8)
same,Hb change to day 7±1,"[4]; TQ 6.25-<8.75mg/kg, n=56",–0.4 (1.0)
same,Hb change to day 2/3,"[4]; TQ <3.75mg/kg, n=171",–0.6 (0.9)
same,Hb change to day 7±1,"[4]; TQ <3.75mg/kg, n=171",–0.3 (0.9)
same,Hb change to day 2/3,"[4]; TQ > 8.75mg/kg, n=44",–0.6 (1.1)
same,Hb change to day 7±1,"[4]; TQ > 8.75mg/kg, n=44",–0.3 (1.3)
same,haemoglobin change at day 2 or 3 per additional mg/kg of tafenoquine,"[4]; mixed effects linear regression, 95% CI –0.04 to 0.00, P=0.02",–0.02 g/dL
